Measurements taken from the NIST ThermoML archive (doi:10.1016/j.fluid.2006.10.027).
Numbers after ± are expanded uncertainties.

Test: xn = mol fraction of the nth substance listed
Conditions: 101 kPa, Liquid, Capillary tube (Ostwald / Ubbelohde) method, x1 = 0.38

A viscosity (300.25 K) of 2.21 ± 0.02 mPa·s, a viscosity (300.33 K) of 2.205 ± 0.02 mPa·s and a viscosity (300.36 K) of 2.204 ± 0.02 mPa·s were found for `CC(C)C(=O)O` [2-methylpropanoic acid] + O in this work. The viscosity (300.49 K) was 2.197 ± 0.02 mPa·s, the viscosity (300.61 K) was 2.19 ± 0.02 mPa·s and the viscosity (300.66 K) was 2.187 ± 0.02 mPa·s. It also gave a viscosity (300.76 K) of 2.182 ± 0.02 mPa·s, a viscosity (300.87 K) of 2.176 ± 0.038 mPa·s and a viscosity (300.96 K) of 2.171 ± 0.038 mPa·s. It also gave a viscosity (301.09 K) of 2.164 ± 0.039 mPa·s, a viscosity (301.16 K) of 2.16 ± 0.039 mPa·s and a viscosity (301.26 K) of 2.154 ± 0.038 mPa·s. For the same molecule, the viscosity (301.36 K) was 2.149 ± 0.038 mPa·s, the viscosity (301.49 K) was 2.142 ± 0.038 mPa·s and the viscosity (301.56 K) was 2.138 ± 0.038 mPa·s. It also gave a viscosity (301.85 K) of 2.122 ± 0.038 mPa·s, a viscosity (302.16 K) of 2.105 ± 0.019 mPa·s and a viscosity (302.46 K) of 2.088 ± 0.038 mPa·s.
